Reference: patent US20090311237A1, “Combination therapy using a soluble hyaluronidase and a bisphosphonate” (priority 2008, published 2009)
Where two headings read alike, the source gives them in different places.

Assay: Phase 1 Stage 1 clinical pharmacokinetics of SC ZA co-administered with rHuPH20
Type: in vivo, human
Conditions: human, serum, sc; for Tmax: read-out: Tmax
Experimental: A pharmacokinetic study of zoledronic acid (ZA) co-administered with rHuPH20 in human subjects was conducted. The primary objective of the study was to determine the bioavailability of zoledronic acid dosed via subcutaneous (SC) co-administration with human recombinant hyaluronidase PH20 (rHuPH20). […] The patients were administered the prescribed dosage formulations as follows: Cohorts 1-5 were administered a single subcutaneous infusion in a dosage volume of 100 ml at a rate of 3 mL/min. […] The dosing solution is administered via needle or catheter into the SC space of the left anterior thigh (midway between the anterior iliac crest and the cephalad border of the patella). For cohorts 1-5, the dosing solutions were administered by a controlled rate infusion pump at approximately 3 mL/minute. […] The dosing solutions were administered by syringe push bolus injection. […] Serum concentration of ZA was determined using a qualified LC-MS-MS assay after derivatization with diazomethane (Zhu, L S et al. (2006) Rapid Commun. […] The assay range was from 2.0 to 400 ng/mL with a lower limit of quantitation (LLOQ) at 2.0 ng/mL. […] Non-compartmental analysis was used for derivation of primary and secondary pharmacokinetic (PK) parameters. […] Summary statistics (mean, standard deviation, and median) were calculated using JMP or Microsoft Excel.

[1] = 0.0791 mg/kg, Subj 37, ZA 0.0791 mg/kg SC, inf 0.556 hr, PH20 24000 U
[2] = 0.0794 mg/kg, Subj 74, ZA 0.0794 mg/kg SC, inf […], PH20 6000 U
[3] = 0.082 mg/kg, Subj 63, ZA 0.0820 mg/kg SC, inf […], PH20 6000 U
[4] = 0.0877 mg/kg, Subj 46, ZA 0.0877 mg/kg SC, inf 0.276 hr, PH20 12000 U
[5] = ZA 0.25 mg SC + 24000 U rHuPH20, individual subjects
[6] = ZA 0.25 mg SC + 24000 U rHuPH20, mean, n=3
[7] = ZA 0.25 mg SC + 24000 U rHuPH20, median, n=3
[8] = ZA 0.5 mg SC + 24000 U rHuPH20, individual subjects
[9] = ZA 0.5 mg SC + 24000 U rHuPH20, mean, n=3
[10] = ZA 0.5 mg SC + 24000 U rHuPH20, median, n=3
[11] = ZA 1 mg SC + 24000 U rHuPH20, individual subjects

O=P(O)(O)C(O)(Cn1ccnc1)P(=O)(O)O [ZA, 1-hydroxy-2-(1H-imidazol-1-yl)ethylidene-1,1-bisphosphonic acid]
AUC(0-t) (0.0791 mg/kg, AUC (0-12 h), Subj 37, ZA 0.0791 mg/kg SC, inf 0.556 hr, PH20 24000 U): 499 ng·h/mL
AUC(0-t) (0.0791 mg/kg, AUC (0-24 h), Subj 37, ZA 0.0791 mg/kg SC, inf 0.556 hr, PH20 24000 U): 536 ng·h/mL
AUC(0-t) (0.0791 mg/kg, AUC (0-48 h), Subj 37, ZA 0.0791 mg/kg SC, inf 0.556 hr, PH20 24000 U): 578 ng·h/mL
Cmax [1]: 131 ng/mL
AUC(0-inf) (0.0791 mg/kg, Subj 37, ZA 0.0791 mg/kg SC, inf 0.556 hr, PH20 24000 U, read-out: AUC (0-inf)): 620 ng·h/mL
Tmax [1]: 0.81 h
AUC(0-t) (0.0794 mg/kg, AUC (0-12 h), Subj 74, ZA 0.0794 mg/kg SC, inf […], PH20 6000 U): 426 ng·h/mL
AUC(0-t) (0.0794 mg/kg, AUC (0-24 h), Subj 74, ZA 0.0794 mg/kg SC, inf […], PH20 6000 U): 467 ng·h/mL
AUC(0-t) (0.0794 mg/kg, AUC (0-48 h), Subj 74, ZA 0.0794 mg/kg SC, inf […], PH20 6000 U): 509 ng·h/mL
Cmax [2]: 120 ng/mL
AUC(0-inf) (0.0794 mg/kg, Subj 74, ZA 0.0794 mg/kg SC, inf […], PH20 6000 U, read-out: AUC (0-inf)): 555 ng·h/mL
Tmax [2]: 0.75 h
AUC(0-t) (0.082 mg/kg, AUC (0-12 h), Subj 63, ZA 0.0820 mg/kg SC, inf […], PH20 6000 U): 497 ng·h/mL
AUC(0-t) (0.082 mg/kg, AUC (0-24 h), Subj 63, ZA 0.0820 mg/kg SC, inf […], PH20 6000 U): 559 ng·h/mL
AUC(0-t) (0.082 mg/kg, AUC (0-48 h), Subj 63, ZA 0.0820 mg/kg SC, inf […], PH20 6000 U): 613 ng·h/mL
Cmax [3]: 167 ng/mL
AUC(0-inf) (0.082 mg/kg, Subj 63, ZA 0.0820 mg/kg SC, inf […], PH20 6000 U, read-out: AUC (0-inf)): 662 ng·h/mL
Tmax [3]: 0.5 h
AUC(0-t) (0.0877 mg/kg, AUC (0-12 h), Subj 46, ZA 0.0877 mg/kg SC, inf 0.276 hr, PH20 12000 U): 610 ng·h/mL
AUC(0-t) (0.0877 mg/kg, AUC (0-24 h), Subj 46, ZA 0.0877 mg/kg SC, inf 0.276 hr, PH20 12000 U): 656 ng·h/mL
AUC(0-t) (0.0877 mg/kg, AUC (0-48 h), Subj 46, ZA 0.0877 mg/kg SC, inf 0.276 hr, PH20 12000 U): 706 ng·h/mL
Cmax [4]: 213 ng/mL
AUC(0-inf) (0.0877 mg/kg, Subj 46, ZA 0.0877 mg/kg SC, inf 0.276 hr, PH20 12000 U, read-out: AUC (0-inf)): 747 ng·h/mL
Tmax [4]: 0.78 h
MRT (0.5 mg, ZA 0.5 mg, SC […] infusion, 100 mL, 3 mL/min, 24000 Units rHuPH20, extrapolated to ∞, individual subjects, read-out: SC MRT): 3.19 h
MRT (1 mg, ZA 1 mg, SC […] infusion, 100 mL, 3 mL/min, 24000 Units rHuPH20, extrapolated to ∞, individual subjects, read-out: SC MRT): 6.93 h
MRT (2 mg, ZA 2 mg, SC […] infusion, 100 mL, 3 mL/min, 24000 Units rHuPH20, extrapolated to ∞, individual subjects, read-out: SC MRT): 5.72 h
MRT (5 mg, ZA 5 mg, SC […] infusion, 100 mL, 3 mL/min, 24000 Units rHuPH20, extrapolated to ∞, individual subjects, read-out: SC MRT): 10.9 h
AUC(0-t) (AUC (0-12h), ZA 0.25 mg SC + 24000 U rHuPH20, individual subjects): 29.7 ng·h/mL
AUC(0-t) (AUC (0-12h), ZA 0.25 mg SC + 24000 U rHuPH20, mean, n=3): 29.5 ng·h/mL
AUC(0-t) (AUC (0-12h), ZA 0.25 mg SC + 24000 U rHuPH20, median, n=3): 29.5 ng·h/mL
AUC(0-t) (AUC (0-12h), ZA 0.5 mg SC + 24000 U rHuPH20, individual subjects): 60.8 ng·h/mL
AUC(0-t) (AUC (0-12h), ZA 0.5 mg SC + 24000 U rHuPH20, mean, n=3): 63.2 ng·h/mL
AUC(0-t) (AUC (0-12h), ZA 0.5 mg SC + 24000 U rHuPH20, median, n=3): 62.4 ng·h/mL
AUC(0-t) (AUC (0-12h), ZA 1 mg SC + 24000 U rHuPH20, individual subjects): 103 ng·h/mL
AUC(0-t) (AUC (0-12h), ZA 1 mg SC + 24000 U rHuPH20, mean, n=3): 115 ng·h/mL
AUC(0-t) (AUC (0-12h), ZA 1 mg SC + 24000 U rHuPH20, median, n=3): 104 ng·h/mL
AUC(0-t) (AUC (0-12h), ZA 2 mg SC + 24000 U rHuPH20, individual subjects): 218 ng·h/mL
AUC(0-t) (AUC (0-12h), ZA 2 mg SC + 24000 U rHuPH20, mean, n=3): 223 ng·h/mL
AUC(0-t) (AUC (0-12h), ZA 2 mg SC + 24000 U rHuPH20, median, n=3): 218 ng·h/mL
AUC(0-t) (AUC (0-12h), ZA 5 mg SC + 24000 U rHuPH20, individual subjects): 499 ng·h/mL
AUC(0-t) (AUC (0-12h), ZA 5 mg SC + 24000 U rHuPH20, mean, n=3): 517 ng·h/mL
AUC(0-t) (AUC (0-12h), ZA 5 mg SC + 24000 U rHuPH20, median, n=3): 499 ng·h/mL
CL/F [5]: 2.47 mL/min/kg
Cmax [5]: 6.84 ng/mL
AUC(0-inf) (ZA 0.25 mg SC + 24000 U rHuPH20, individual subjects, read-out: AUC (0-∞)): 30.8 ng·h/mL
MRT (ZA 0.25 mg SC + 24000 U rHuPH20, individual subjects, read-out: MRT): 2.93 h
Tmax [5]: 1.06 h
Vd/F (ZA 0.25 mg SC + 24000 U rHuPH20, individual subjects, read-out: Vss/F): 0.435 L/kg
Vd/F (ZA 0.25 mg SC + 24000 U rHuPH20, individual subjects, read-out: Vz/F): 0.402 L/kg
CL/F [6]: 2 mL/min/kg
Cmax [6]: 6.75 ng/mL
AUC(0-inf) (ZA 0.25 mg SC + 24000 U rHuPH20, mean, n=3, read-out: AUC (0-∞)): 30.9 ng·h/mL
MRT (ZA 0.25 mg SC + 24000 U rHuPH20, mean, n=3, read-out: MRT): 3.5 h
Tmax [6]: 1.31 h
Vd/F (ZA 0.25 mg SC + 24000 U rHuPH20, mean, n=3, read-out: Vss/F): 0.411 L/kg
Vd/F (ZA 0.25 mg SC + 24000 U rHuPH20, mean, n=3, read-out: Vz/F): 0.364 L/kg
CL/F [7]: 1.8 mL/min/kg
Cmax [7]: 6.84 ng/mL
AUC(0-inf) (ZA 0.25 mg SC + 24000 U rHuPH20, median, n=3, read-out: AUC (0-∞)): 30.8 ng·h/mL
MRT (ZA 0.25 mg SC + 24000 U rHuPH20, median, n=3, read-out: MRT): 3.37 h
Tmax [7]: 1.31 h
Vd/F (ZA 0.25 mg SC + 24000 U rHuPH20, median, n=3, read-out: Vss/F): 0.433 L/kg
Vd/F (ZA 0.25 mg SC + 24000 U rHuPH20, median, n=3, read-out: Vz/F): 0.363 L/kg
MRT (ZA 0.25 mg, SC […] infusion, 100 mL, 3 mL/min, 24000 Units rHuPH20, extrapolated to ∞, individual subjects, read-out: SC MRT): 3.37 h
CL/F [8]: 2.35 mL/min/kg
Cmax [8]: 15.3 ng/mL
AUC(0-inf) (ZA 0.5 mg SC + 24000 U rHuPH20, individual subjects, read-out: AUC (0-∞)): 62.5 ng·h/mL
MRT (ZA 0.5 mg SC + 24000 U rHuPH20, individual subjects, read-out: MRT): 3.19 h
Tmax [8]: 0.81 h
Vd/F (ZA 0.5 mg SC + 24000 U rHuPH20, individual subjects, read-out: Vss/F): 0.451 L/kg
Vd/F (ZA 0.5 mg SC + 24000 U rHuPH20, individual subjects, read-out: Vz/F): 0.456 L/kg
CL/F [9]: 2.08 mL/min/kg
Cmax [9]: 15.5 ng/mL
AUC(0-inf) (ZA 0.5 mg SC + 24000 U rHuPH20, mean, n=3, read-out: AUC (0-∞)): 65 ng·h/mL
MRT (ZA 0.5 mg SC + 24000 U rHuPH20, mean, n=3, read-out: MRT): 3.26 h
Tmax [9]: 1.14 h
Vd/F (ZA 0.5 mg SC + 24000 U rHuPH20, mean, n=3, read-out: Vss/F): 0.406 L/kg
Vd/F (ZA 0.5 mg SC + 24000 U rHuPH20, mean, n=3, read-out: Vz/F): 0.407 L/kg
CL/F [10]: 2.18 mL/min/kg
Cmax [10]: 15.3 ng/mL
AUC(0-inf) (ZA 0.5 mg SC + 24000 U rHuPH20, median, n=3, read-out: AUC (0-∞)): 64.4 ng·h/mL
MRT (ZA 0.5 mg SC + 24000 U rHuPH20, median, n=3, read-out: MRT): 3.24 h
Tmax [10]: 1.31 h
Vd/F (ZA 0.5 mg SC + 24000 U rHuPH20, median, n=3, read-out: Vss/F): 0.423 L/kg
Vd/F (ZA 0.5 mg SC + 24000 U rHuPH20, median, n=3, read-out: Vz/F): 0.428 L/kg
CL/F [11]: 2.38 mL/min/kg
Cmax [11]: 30.1 ng/mL
AUC(0-inf) (ZA 1 mg SC + 24000 U rHuPH20, individual subjects, read-out: AUC (0-∞)): 122 ng·h/mL
